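At the GI50, growth is halved. TGI: total growth inhibition.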
Tests used:
Experiment in all cases: NCI anticancer screen, dose series, 384-well format
[1] = system: CAKI-1 renal
[2] = system: HOP-62 NSCLC
[3] = system: MOLT-4 leukemia
[4] = system: SK-MEL-5 melanoma
[5] = system: NCI-H460 NSCLC
[6] = system: SF-268 CNS
[7] = system: UACC-257 melanoma
[8] = system: SF-295 CNS
[9] = system: DU-145 prostate
[10] = system: TK-10 renal
[11] = system: EKVX NSCLC
[12] = system: COLO 205 colon
[13] = system: BT-549 breast
[14] = system: ACHN renal
[15] = system: HS 578T breast
[16] = system: A549 NSCLC
[17] = system: MDA-MB-231 breast
[18] = system: NCI-H322M lung
[19] = system: SNB-75 CNS
[20] = system: MCF7 breast
[21] = system: HL-60(TB) leukemia
[22] = system: UO-31 renal
[23] = system: NCI-H226 lung
[24] = system: KM12 colon
[25] = system: SW-620 colon
[26] = system: MDA-MB-435 melanoma
[27] = system: OVCAR-3 ovarian
[28] = system: NCI-H522 lung
[29] = system: PC-3 prostate
[30] = system: HOP-92 NSCLC
[31] = system: OVCAR-4 ovarian
[32] = system: K-562 leukemia
[33] = system: OVCAR-5 ovarian
[34] = system: IGROV1 ovarian
[35] = system: NCI/ADR-RES ovarian
[36] = system: SK-MEL-2 melanoma
[37] = system: LOX IMVI melanoma
[38] = system: SF-539 CNS
[39] = system: MDA-MB-468 breast
[40] = system: SK-MEL-28 melanoma
[41] = system: T-47D breast
[42] = system: HCT-15 colon
[43] = system: U251 glioblastoma
[44] = system: SK-OV-3 ovarian
[45] = system: OVCAR-8 ovarian
[46] = system: MALME-3M melanoma
[47] = system: HCT-116 colon
[48] = system: HCC-2998 colon
[49] = system: A498 renal
[50] = system: UACC-62 melanoma
[51] = system: M14 melanoma
[52] = system: HT29 colon
[53] = system: SN12C renal
[54] = system: 786-0 renal
[55] = system: RXF 393 renal
[56] = system: RPMI-8226 leukemia
[57] = system: SNB-19 CNS
[58] = system: NCI-H23 lung
[59] = system: CCRF-CEM leukemia
[60] = system: SR leukemia

Structure (SMILES): O=C(c1ccc(Oc2ccccc2)cc1Cl)c1c[nH]c2ncnc(N[C@@H]3CC[C@@H](CO)OC3)c12
- GI50 [1]: 261 nM
- TGI [1]: 1440 nM
- GI50 [2]: 638 nM
- TGI [2]: 2660 nM
- GI50 [3]: 296 nM
- TGI [3]: 1820 nM
- GI50 [4]: 33.7 nM
- TGI [4]: 1470 nM
- GI50 [5]: 771 nM
- TGI [5]: 3650 nM
- GI50 [6]: 482 nM
- TGI [6]: 4890 nM
- GI50 [7]: 21.7 nM
- TGI [7]: 83.9 nM
- GI50 [8]: 1000 nM
- TGI [8]: 3330 nM
- GI50 [9]: 354 nM
- TGI [9]: 1480 nM
- GI50 [10]: 185 nM
- TGI [10]: 543 nM
- GI50 [11]: 113 nM
- TGI [11]: 1070 nM
- GI50 [12]: 17.7 nM
- TGI [12]: 113 nM
- GI50 [13]: 313 nM
- TGI [13]: 1460 nM
- GI50 [14]: 121 nM
- TGI [14]: 983 nM
- GI50 [15]: 700 nM
- TGI [15]: 2120 nM
- GI50 [16]: 244 nM
- TGI [16]: 1540 nM
- GI50 [17]: 46.3 nM
- TGI [17]: 207 nM
- GI50 [18]: 249 nM
- TGI [18]: 1780 nM
- GI50 [19]: 801 nM
- TGI [19]: 2280 nM
- GI50 [20]: 255 nM
- TGI [20]: 1910 nM
- GI50 [21]: 36.8 nM
- TGI [21]: 196 nM
- GI50 [22]: 305 nM
- TGI [22]: 1450 nM
- GI50 [23]: 135 nM
- TGI [23]: 937 nM
- GI50 [24]: 19.4 nM
- TGI [24]: 171 nM
- GI50 [25]: 151 nM
- TGI [25]: 1270 nM
- GI50 [26]: 17 nM
- TGI [26]: 170 nM
- GI50 [27]: 130 nM
- TGI [27]: 3180 nM
- GI50 [28]: 49.4 nM
- TGI [28]: 366 nM
- GI50 [29]: 2320 nM
- TGI [29]: 11600 nM
- GI50 [30]: 273 nM
- TGI [30]: 1190 nM
- GI50 [31]: 1130 nM
- TGI [31]: 7200 nM
- GI50 [32]: 153 nM
- TGI [32]: 399 nM
- GI50 [33]: 153 nM
- TGI [33]: 938 nM
- GI50 [34]: 30.6 nM
- TGI [34]: 987 nM
- GI50 [35]: 1130 nM
- TGI [35]: 2480 nM
- GI50 [36]: 127 nM
- TGI [36]: 289 nM
- GI50 [37]: 33.1 nM
- TGI [37]: 161 nM
- GI50 [38]: 338 nM
- TGI [38]: 1600 nM
- GI50 [39]: 303 nM
- TGI [39]: 1870 nM
- GI50 [40]: 13.3 nM
- TGI [40]: 55.8 nM
- GI50 [41]: 520 nM
- TGI [41]: 3210 nM
- GI50 [42]: 510 nM
- TGI [42]: 3340 nM
- GI50 [43]: 462 nM
- TGI [43]: 2510 nM
- GI50 [44]: 201 nM
- TGI [44]: 965 nM
- GI50 [45]: 390 nM
- TGI [45]: 2080 nM
- TGI [46]: 24.7 nM
- GI50 [47]: 248 nM
- TGI [47]: 1110 nM
- GI50 [48]: 29.9 nM
- TGI [48]: 204 nM
- GI50 [49]: 519 nM
- TGI [49]: 2770 nM
- GI50 [50]: 10.7 nM
- TGI [50]: 54.7 nM
- TGI [51]: 48.9 nM
- GI50 [52]: 33.4 nM
- TGI [52]: 1300 nM
- GI50 [53]: 193 nM
- TGI [53]: 1380 nM
- GI50 [54]: 1110 nM
- TGI [54]: 4610 nM
- GI50 [55]: 210 nM
- TGI [55]: 920 nM
- GI50 [56]: 696 nM
- TGI [56]: 2190 nM
- GI50 [57]: 372 nM
- TGI [57]: 3950 nM
- GI50 [58]: 67 nM
- TGI [58]: 385 nM
- GI50 [59]: 1590 nM
- TGI [59]: 3400 nM
- GI50 [60]: 186 nM
- TGI [60]: 343 nM

— PubChem BioAssay (NCI)
